For 43 molecules, IC50 results are on record in patent publication US10703764B2, “Benzopiperazine compositions as BET bromodomain inhibitors” (FORMA Therapeutics, Inc., priority 2013, dated 2020).

For one assay, the target named is T1, BRD4 BD2 (Homo sapiens, UniProt O60885).
T1 construct: made in house
In words: AlphaScreen binding assay, BRD4 Bromodomain 2. The gist of the method: (§1)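 Compound dilution series were mixed with His-tagged BRD4 bromodomain and biotinylated tetra-acetylated H4 (1-21) peptide at pH 7.3 (BD1 and peptide at 50 nM, BD2 and peptide at 100 nM). Donor and acceptor beads were then added, and plates were equilibrated at least 1 h before reading. IC50 values were fitted with a four-parameter logistic model.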
On the technique in general: Alpha assays give light when donor and acceptor beads are brought close together.

The target in another assay is T2, BRD4 BD1 (Homo sapiens, UniProt O60885).
T2 construct: made in house
Put plainly: AlphaScreen binding assay, BRD4 Bromodomain 1. The gist of the method:
as §1

Some results are limits rather than exact numbers.

By IC50 is commonly meant the concentration needed to halve the response being measured. Read a high IC50 as lower potency. Consider `CC(=O)N1c2ccccc2N(Cc2cccc3c2OCO3)C[C@@H]1C` [Example I-921], for which the values for the half-inhibitory concentration (IC50) on BRD4 BD2 and at BRD4 BD1 were 0.05 to 0.5 µM and greater than 10 µM, respectively.

For `CC(=O)N1c2ccccc2N(Cc2ccc(N3CCOCC3)nc2)C[C@@H]1C` [Example I-922], the half-maximal inhibitory concentration (IC50) at BRD4 BD2 is greater than 0.5 µM; at BRD4 BD1, greater than 10 µM.

On to `CC(=O)N1c2ccccc2N(Cc2ccc(O)cc2)C[C@@H]1C` [Example I-923], for which the 50% inhibitory concentration (IC50) on BRD4 BD2 was greater than 0.5 µM; at BRD4 BD1, greater than 10 µM.

Take `CC(=O)N1c2ccccc2N(Cc2cccnc2)C[C@@H]1C` [Example I-924]: the values for the half-maximal inhibitory concentration (IC50) at BRD4 BD2 and on BRD4 BD1 were greater than 0.5 µM and greater than 10 µM, respectively.

Regarding `CC(=O)N1c2ccccc2N(CC2CCOCC2)C[C@@H]1C` [Example I-925], the IC50 at BRD4 BD2 is greater than 0.5 µM; on BRD4 BD1, greater than 10 µM.

Regarding `CC(=O)N1c2ccccc2N(Cc2cncn2C)C[C@@H]1C` [Example I-926], the concentration for half-maximal inhibition (IC50) on BRD4 BD2 is greater than 0.5 µM; on BRD4 BD1, greater than 10 µM.

For `CCC[C@@H](C)CN1C[C@H](C)N(C(C)=O)c2ccccc21` [Example I-927], the IC50 on BRD4 BD2 was greater than 0.5 µM; at BRD4 BD1 it was greater than 10 µM.

On to `CC(=O)N1CCC[C@H](CN2C[C@H](C)N(C(C)=O)c3ccccc32)C1` [Example I-928], for which the half-maximal inhibitory concentration (IC50) was greater than 0.5 µM on BRD4 BD2 and greater than 10 µM on BRD4 BD1.

In the case of `CC(=O)N1c2ccccc2N(CC2CCN(C(C)C)CC2)C[C@@H]1C` [Example I-929], the results for the IC50 on BRD4 BD2 and on BRD4 BD1 were greater than 0.5 µM and greater than 10 µM, respectively.

Regarding `COc1ccc(OC)c(S(=O)(=O)N2C[C@H](C)N(C(C)=O)c3ccccc32)c1` [Example I-930], the results for the half-maximal inhibitory concentration (IC50) on BRD4 BD2 and at BRD4 BD1 were greater than 0.5 µM and greater than 10 µM, respectively.

With `CC(=O)N1c2ccccc2N(S(=O)(=O)c2ccccc2F)C[C@@H]1C` [Example I-931], the values for the IC50 on BRD4 BD2 and at BRD4 BD1 were greater than 0.5 µM and greater than 10 µM, respectively.

On to `CC(=O)N1c2ccccc2N(S(=O)(=O)c2ccccc2)C[C@@H]1C` [Example I-932], for which the figures for the IC50 at BRD4 BD2 and on BRD4 BD1 were greater than 0.5 µM and greater than 10 µM, respectively.

In the case of `CC(=O)N1c2ccccc2N(S(=O)(=O)c2ccn(C)n2)C[C@@H]1C` [Example I-933], the values for the concentration for half-maximal inhibition (IC50) at BRD4 BD2 and at BRD4 BD1 were greater than 0.5 µM and greater than 10 µM, respectively.

Turning to `CC(=O)N1c2ccccc2N(S(=O)(=O)c2cccnc2)C[C@@H]1C` [Example I-934], the 50% inhibitory concentration (IC50) on BRD4 BD2 was greater than 0.5 µM; at BRD4 BD1 it was greater than 10 µM.

On to `CC(=O)N1c2ccccc2N(S(=O)(=O)c2ccc(Cl)cc2)C[C@@H]1C` [Example I-935], for which the half-maximal inhibitory concentration (IC50) at BRD4 BD2 is greater than 0.5 µM; on BRD4 BD1, greater than 10 µM.

Take `COc1ccc(S(=O)(=O)N2C[C@H](C)N(C(C)=O)c3ccccc32)cc1` [Example I-936]: the IC50 was greater than 0.5 µM at BRD4 BD2 and greater than 10 µM on BRD4 BD1.

Take `CC(=O)N1c2ccccc2N(S(=O)(=O)c2ccc(C(F)(F)F)cc2)C[C@@H]1C` [Example I-937]: the IC50 was greater than 0.5 µM on BRD4 BD2 and greater than 10 µM on BRD4 BD1.

Regarding `CC(=O)N1c2ccccc2N(S(=O)(=O)c2ccc(C#N)cc2)C[C@@H]1C` [Example I-938], the IC50 is greater than 0.5 µM at BRD4 BD2 and greater than 10 µM at BRD4 BD1.

Take `CC(=O)N1c2ccccc2N(S(=O)(=O)c2ccc(OC(F)(F)F)cc2)C[C@@H]1C` [Example I-939]: the IC50 was greater than 0.5 µM on BRD4 BD2 and greater than 10 µM on BRD4 BD1.

As for `CC(=O)N1c2ccccc2N(S(=O)(=O)c2ccc(C)cc2)C[C@@H]1C` [Example I-940], the IC50 was greater than 0.5 µM at BRD4 BD2 and greater than 10 µM on BRD4 BD1.

Turning to `CC(=O)N1c2ccccc2N(S(=O)(=O)c2ccccc2C)C[C@@H]1C` [Example I-941], the values for the half-inhibitory concentration (IC50) on BRD4 BD2 and at BRD4 BD1 were greater than 0.5 µM and greater than 10 µM, respectively.

`CC(=O)N1c2ccccc2N(S(=O)(=O)c2ccccc2Cl)C[C@@H]1C` [Example I-942]: the IC50 was greater than 0.5 µM on BRD4 BD2 and greater than 10 µM on BRD4 BD1.

As to `CC(=O)N1c2ccccc2N(S(=O)(=O)c2ccccc2C#N)C[C@@H]1C` [Example I-943], the IC50 at BRD4 BD2 was greater than 0.5 µM; at BRD4 BD1, greater than 10 µM.

Consider `CC(=O)N1c2ccccc2N(S(=O)(=O)c2cccc(C#N)c2)C[C@@H]1C` [Example I-944], for which the values for the half-maximal inhibitory concentration (IC50) at BRD4 BD2 and at BRD4 BD1 were greater than 0.5 µM and greater than 10 µM, respectively.

For the molecule `COc1cccc(S(=O)(=O)N2C[C@H](C)N(C(C)=O)c3ccccc32)c1` [Example I-945], the figures for the IC50 on BRD4 BD2 and at BRD4 BD1 were greater than 0.5 µM and greater than 10 µM, respectively.

On to `CC(=O)N1c2ccccc2N(S(=O)(=O)c2cccc(Cl)c2)C[C@@H]1C` [Example I-946], for which the values for the IC50 at BRD4 BD2 and at BRD4 BD1 were greater than 0.5 µM and greater than 10 µM, respectively.

For the molecule `CC(=O)N1c2ccccc2N(S(=O)(=O)c2cccc(C(F)(F)F)c2)C[C@@H]1C` [Example I-947], the figures for the IC50 at BRD4 BD2 and at BRD4 BD1 were greater than 0.5 µM and greater than 10 µM, respectively.

Consider `CC(=O)N1c2ccccc2N(S(=O)(=O)c2cccc(C)c2)C[C@@H]1C` [Example I-948], for which the 50% inhibitory concentration (IC50) at BRD4 BD2 was greater than 0.5 µM; on BRD4 BD1, greater than 10 µM.

For the molecule `CC(=O)N1c2ccccc2N(S(=O)(=O)c2ccc(C)cc2C)C[C@@H]1C` [Example I-949], the half-inhibitory concentration (IC50) on BRD4 BD2 is greater than 0.5 µM; on BRD4 BD1 it was greater than 10 µM.

Take `COc1ccc(S(=O)(=O)N2C[C@H](C)N(C(C)=O)c3ccccc32)c(OC)c1` [Example I-950]: the half-inhibitory concentration (IC50) on BRD4 BD2 was greater than 0.5 µM; on BRD4 BD1 it was greater than 10 µM.

On to `CC(=O)N1c2ccccc2N(S(=O)(=O)c2ccc(C(F)(F)F)nc2)C[C@@H]1C` [Example I-951], for which the concentration for half-maximal inhibition (IC50) on BRD4 BD2 is greater than 0.5 µM; on BRD4 BD1, greater than 10 µM.

On to `CC(=O)N1c2ccccc2N(S(=O)(=O)C2CC2)C[C@@H]1C` [Example I-952], for which the figures for the concentration for half-maximal inhibition (IC50) on BRD4 BD2 and at BRD4 BD1 were greater than 0.5 µM and greater than 10 µM, respectively.

With `CC(=O)N1c2ccccc2N(S(=O)(=O)Cc2ccccc2Cl)C[C@@H]1C` [Example I-953], the IC50 on BRD4 BD2 is greater than 0.5 µM; on BRD4 BD1, greater than 10 µM.

Turning to `CC(=O)N1c2ccccc2N(S(=O)(=O)Cc2ccccc2)C[C@@H]1C` [Example I-954], the figures for the IC50 at BRD4 BD2 and at BRD4 BD1 were greater than 0.5 µM and greater than 10 µM, respectively.

Take `CC(=O)N1c2ccccc2N(S(=O)(=O)Cc2cccc(Cl)c2)C[C@@H]1C` [Example I-955]: the concentration for half-maximal inhibition (IC50) on BRD4 BD2 is greater than 0.5 µM; on BRD4 BD1, greater than 10 µM.

Turning to `CC(=O)N1c2ccccc2N(S(=O)(=O)c2cn(C)c(C)n2)C[C@@H]1C` [Example I-956], the half-maximal inhibitory concentration (IC50) at BRD4 BD2 is greater than 0.5 µM; on BRD4 BD1 it was greater than 10 µM.

With `CC(=O)c1ccc(S(=O)(=O)N2C[C@H](C)N(C(C)=O)c3ccccc32)cc1` [Example I-957], the IC50 is greater than 0.5 µM at BRD4 BD2 and greater than 10 µM at BRD4 BD1.

Regarding `CC(=O)N1c2ccccc2N(S(=O)(=O)Cc2cccc(C#N)c2)C[C@@H]1C` [Example I-958], the IC50 at BRD4 BD2 was greater than 0.5 µM; at BRD4 BD1, greater than 10 µM.

`COc1cc(Cl)ccc1S(=O)(=O)N1C[C@H](C)N(C(C)=O)c2ccccc21` [Example I-959]: the IC50 at BRD4 BD2 is greater than 0.5 µM; on BRD4 BD1, greater than 10 µM.

On to `COc1ccc(S(=O)(=O)N2C[C@H](C)N(C(C)=O)c3ccccc32)c(C)c1` [Example I-960], for which the half-maximal inhibitory concentration (IC50) on BRD4 BD2 was greater than 0.5 µM; on BRD4 BD1, greater than 10 µM.

Consider `CC(=O)N1c2ccccc2N(S(=O)(=O)c2cn(C)cn2)C[C@@H]1C` [Example I-961], for which the IC50 was greater than 0.5 µM on BRD4 BD2 and greater than 10 µM at BRD4 BD1.

As for `CC(=O)N1c2ccccc2N(S(=O)(=O)Cc2ccc(Cl)cc2)C[C@@H]1C` [Example I-962], the IC50 was greater than 0.5 µM on BRD4 BD2 and greater than 10 µM on BRD4 BD1.

Consider `CC(=O)N1c2ccccc2N(S(=O)(=O)Cc2ccc(C#N)cc2)C[C@@H]1C` [Example I-963], for which the values for the half-inhibitory concentration (IC50) on BRD4 BD2 and on BRD4 BD1 were greater than 0.5 µM and greater than 10 µM, respectively.
